For 22 compounds, IC50 and GI50 results are on record in US20250179059A1 (The Regents of the University of California, priority 2021, published 2025).

Experiment [1] concerns the target T1, human BRD4 bromodomain II (Homo sapiens, UniProt O60885).
T1 construct: human BRD4 bromodomain II [based on Genbank NM_058243, residues 349-460]; host or cells: E. coli
The experiment can be described thus: Bromodomain binding assay (AlphaScreen), BRD4 BDII. The following applies: AlphaScreen assay, Table C2; read-out: BRD4 BDII IC50. An outline of the steps:
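AlphaScreen competition with biotinylated H4 peptide (aa 1-21, K5/K8/K12/K16Ac), using nickel-chelate acceptor and streptavidin donor beads. Targets were His6-BRD4 BDI (44-170) or BDII (349-460), with a 30 min compound preincubation over a 10-point 3-fold series. IC50 was fitted from percentage peptide binding.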
For orientation: Bead proximity is the source of the signal in Alpha formats.

For experiment [2], the system named is human SKM-1 acute myeloid leukemia cells. Description: SKM-1 antiproliferation cell-based assay (ATPlite). The following applies: Homo sapiens, SKM-1, 96 h, SKM-1 antiproliferation assay, 4 days, Table C2. Put shortly: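 Log-phase cells in RPMI 1640/15% FBS were seeded at 34722 cells/mL and exposed for 4 days to nine-concentration DMSO serial dilutions in triplicate. Viability was read as ATP luminescence (ATPlite 1step), and IC50 values came from variable-slope non-linear regression.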

By IC50 is commonly meant the midpoint of a concentration-inhibition curve. The term GI50 denotes the concentration that inhibits growth by half. Read a high GI50 as less potent growth inhibition.

For `Cc1cc(-c2ccc(-n3ccn(C)c3=O)c(Cl)c2)c(O)c(-c2cc(N3CCN[C@H](C)C3)c3cn[nH]c3c2)c1` [Example 585, (R)-1-(3-chloro-2′-hydroxy-5′-methyl-3′-(4-(3-methylpiperazin-1-yl)-1H-indazol-6-yl)-[1,1′-biphenyl]-4-yl)-3-methyl-1H-imidazol-2(3H)-one], the IC50 in experiment [1] was in the range of 1 to 10 nM. This compound yielded a GI50 in experiment [2] of 0.3 to 30 nM.
For `Cn1ccn(-c2ccc(-c3cc(F)cc(-c4cc(N5CCC[C@@H](N)C5)c5cn[nH]c5c4)c3O)cc2Cl)c1=O` [Example 586, (R)-1-(3′-(4-(3-aminopiperidin-1-yl)-1H-indazol-6-yl)-3-chloro-5′-fluoro-2′-hydroxy-[1,1′-biphenyl]-4-yl)-3-methyl-1H-imidazol-2(3H)-one], the IC50 in experiment [1] was 1 to 10 nM. Besides, in experiment [2], the concentration for 50% growth inhibition (GI50) was in the range of 0.3 to 30 nM.
For `CC(C)N1CCN(c2cc(-c3cc(F)cc(-c4ccc(-n5ccn(C)c5=O)c(Cl)c4)c3O)cc3[nH]ncc23)CC1` [Example 587, 1-(3-chloro-5′-fluoro-2′-hydroxy-3′-(4-(4-isopropylpiperazin-1-yl)-1H-indazol-6-yl)-[1,1′-biphenyl]-4-yl)-3-methyl-1H-imidazol-2(3H)-one], in that order: 1 to 10 nM and 0.3 to 30 nM.
In the case of `CN1CCN(c2cc(-c3cc(F)cc(-c4ccc(-n5ccn(C)c5=O)c(Cl)c4)c3O)cc3[nH]ncc23)CC1` [Example 588, 1-(3-chloro-5′-fluoro-2′-hydroxy-3′-(4-(4-methylpiperazin-1-yl)-1H-indazol-6-yl)-[1,1′-biphenyl]-4-yl)-3-methyl-1H-imidazol-2(3H)-one], the IC50 in experiment [1] fell in the range of 0.01 to 1 nM. The compound also displayed a GI50 in experiment [2] of 0.3 to 30 nM.
As for `Cn1ccn(-c2ccc(-c3cc(F)cc(-c4cc(N5CCNC(C)(C)C5)c5cn[nH]c5c4)c3O)cc2Cl)c1=O` [Example 589, 1-(3-chloro-3′-(4-(3,3-dimethylpiperazin-1-yl)-1H-indazol-6-yl)-5′-fluoro-2′-hydroxy-[1,1′-biphenyl]-4-yl)-3-methyl-1H-imidazol-2(3H)-one], the IC50 in experiment [1] was 1 to 10 nM. Further, in experiment [2], the GI50 lay within 0.3 to 30 nM.
In the case of `Cn1ccn(-c2ccc(-c3cc(F)cc(-c4cc(N5CCOCC5)c5cn[nH]c5c4)c3O)cc2Cl)c1=O` [Example 590, 1-(3-chloro-5′-fluoro-2′-hydroxy-3′-(4-morpholino-1H-indazol-6-yl)-[1,1′-biphenyl]-4-yl)-3-methyl-1H-imidazol-2(3H)-one], in experiment [1], the IC50 lay in the range of 1 to 10 nM. The GI50 in experiment [2] lay within 30 to 300 nM.
Taken in the same sequence, the figures for `C[C@@H]1CN(c2cc(-c3cc(F)cc(-c4ccc(-n5ccn(C)c5=O)c(Cl)c4)c3O)cc3cccnc23)CCN1` [Example 591, (R)-1-(3-chloro-5′-fluoro-2′-hydroxy-3′-(8-(3-methylpiperazin-1-yl)quinolin-6-yl)-[1,1′-biphenyl]-4-yl)-3-methyl-1H-imidazol-2(3H)-one] were 0.01 to 1 nM and 0.3 to 30 nM.
Taken in the same sequence, the figures for `CCC[C@@H]1CN(c2cc(-c3cc(F)cc(-c4ccc(-n5ccn(C)c5=O)c(Cl)c4)c3O)cc3[nH]ncc23)CCN1` [Example 592, (R)-1-(3-chloro-5′-fluoro-2′-hydroxy-3′-(4-(3-propylpiperazin-1-yl)-1H-indazol-6-yl)-[1,1′-biphenyl]-4-yl)-3-methyl-1H-imidazol-2(3H)-one] were 1 to 10 nM and 0.3 to 30 nM.
Consider `Cn1ccn(-c2ccc(-c3cc(F)cc(-c4cc(N5CC[C@@H](N)C5)c5cn[nH]c5c4)c3O)cc2Cl)c1=O` [Example 593, (R)-1-(3′-(4-(3-aminopyrrolidin-1-yl)-1H-indazol-6-yl)-3-chloro-5′-fluoro-2′-hydroxy-[1,1′-biphenyl]-4-yl)-3-methyl-1H-imidazol-2(3H)-one], for which, in experiment [1], the IC50 lay in the range of 0.01 to 1 nM. This compound also showed a GI50 in experiment [2] of 0.3 to 30 nM.
For `CC[C@@H]1CN(c2cc(-c3cc(F)cc(-c4ccc(-n5ccn(C)c5=O)c(Cl)c4)c3O)cc3[nH]ncc23)CCN1` [Example 594, (R)-1-(3-chloro-3′-(4-(3-ethylpiperazin-1-yl)-1H-indazol-6-yl)-5′-fluoro-2′-hydroxy-[1,1′-biphenyl]-4-yl)-3-methyl-1H-imidazol-2(3H)-one], in that order: 0.01 to 1 nM and 0.3 to 30 nM.
As for `C[C@H]1CN(c2cc(-c3cc(F)cc(-c4ccc(-n5ccn(C)c5=O)c(Cl)c4)c3O)cc3[nH]ncc23)CCN1` [Example 595, (S)-1-(3-chloro-5′-fluoro-2′-hydroxy-3′-(4-(3-methylpiperazin-1-yl)-1H-indazol-6-yl)-[1,1′-biphenyl]-4-yl)-3-methyl-1H-imidazol-2(3H)-one], in experiment [1], the IC50 lay within 1 to 10 nM. This compound yielded a GI50 in experiment [2] of 0.3 to 30 nM.
As for `C[C@H]1CCCN(c2cc(-c3cc(F)cc(-c4ccc(-n5ccn(C)c5=O)c(Cl)c4)c3O)cc3[nH]ncc23)C1` [Example 596, (S)-1-(3-chloro-5′-fluoro-2′-hydroxy-3′-(4-(3-methylpiperidin-1-yl)-1H-indazol-6-yl)-[1,1′-biphenyl]-4-yl)-3-methyl-1H-imidazol-2(3H)-one], the IC50 in experiment [1] fell in the range of 10 to 100 nM. In addition, the GI50 in experiment [2] lay in the range of 300 to 3000 nM.
For `CC(C)[C@@H]1CN(c2cc(-c3cc(F)cc(-c4ccc(-n5ccn(C)c5=O)c(Cl)c4)c3O)cc3[nH]ncc23)CCN1` [Example 597, (R)-1-(3-chloro-5′-fluoro-2′-hydroxy-3′-(4-(3-isopropylpiperazin-1-yl)-1H-indazol-6-yl)-[1,1′-biphenyl]-4-yl)-3-methyl-1H-imidazol-2(3H)-one], in that order: 1 to 10 nM and 0.3 to 30 nM.
For `Cn1ccn(-c2ccc(-c3cc(F)cc(-c4cc(N5C[C@@H](N)C6(CC6)C5)c5cn[nH]c5c4)c3O)cc2Cl)c1=O` [Example 598, (S)-1-(3′-(4-(7-amino-5-azaspiro[2.4]heptan-5-yl)-1H-indazol-6-yl)-3-chloro-5′-fluoro-2′-hydroxy-[1,1′-biphenyl]-4-yl)-3-methyl-1H-imidazol-2(3H)-one], in that order: 1 to 10 nM and 0.3 to 30 nM.
On to `Cn1ccn(-c2ccc(-c3cc(F)cc(-c4cc(N5CC6CC5CN6)c5cn[nH]c5c4)c3O)cc2Cl)c1=O` (centres unmarked) [Example 599, 1-(3′-(4-(2,5-diazabicyclo[2.2.1]heptan-2-yl)-1H-indazol-6-yl)-3-chloro-5′-fluoro-2′-hydroxy-[1,1′-biphenyl]-4-yl)-3-methyl-1H-imidazol-2(3H)-one], for which the IC50 in experiment [1] lay within 1 to 10 nM. In experiment [2], this compound registered a GI50 of 30 to 300 nM.
`Cn1ccn(-c2ccc(-c3cc(F)cc(-c4cc(N5CC6CCC5CN6)c5cn[nH]c5c4)c3O)cc2Cl)c1=O` (centres unmarked) [Example 600, 1-(3′-(4-(2,5-diazabicyclo[2.2.2]octan-2-yl)-1H-indazol-6-yl)-3-chloro-5′-fluoro-2′-hydroxy-[1,1′-biphenyl]-4-yl)-3-methyl-1H-imidazol-2(3H)-one]: the IC50 in experiment [1] is 1 to 10 nM. The GI50 in experiment [2] lay in the range of 0.3 to 30 nM.
`Cn1ccn(-c2ccc(-c3cc(F)cc(-c4cc(N5CCN6CCCCC6C5)c5cn[nH]c5c4)c3O)cc2Cl)c1=O` (centres unmarked) [Example 601, 1-(3-chloro-5′-fluoro-3′-(4-(hexahydro-1H-pyrido[1,2-a]pyrazin-2(6H)-yl)-1H-indazol-6-yl)-2′-hydroxy-[1,1′-biphenyl]-4-yl)-3-methyl-1H-imidazol-2(3H)-one]: the 50% inhibitory concentration (IC50) in experiment [1] lay in the range of 0.01 to 1 nM. Also, the GI50 in experiment [2] was in the range of 0.3 to 30 nM.
Taken in the same sequence, the figures for `C[C@@H]1CN(c2cc(-c3cc(F)cc(-c4ccc(-n5ccn(C)c5=O)c(Cl)c4)c3O)cn3ncnc23)CCN1` [Example 602, (R)-1-(3-chloro-5′-fluoro-2′-hydroxy-3′-(8-(3-methylpiperazin-1-yl)-[1,2,4]triazolo[1,5-a]pyridin-6-yl)-[1,1′-biphenyl]-4-yl)-3-methyl-1H-imidazol-2(3H)-one] were 0.01 to 1 nM and 0.3 to 30 nM.
Turning to `C[C@@H]1CN(c2cc(-c3cc(F)cc(-c4ccc(-n5ccn(C)c5=O)c(Cl)c4)c3O)cc3[nH]c(=O)[nH]c23)CCN1` [Example 603, (R)-6-(3′-chloro-5-fluoro-2-hydroxy-4′-(3-methyl-2-oxo-2,3-dihydro-1H-imidazol-1-yl)-[1,1′-biphenyl]-3-yl)-4-(3-methylpiperazin-1-yl)-1H-benzo[d]imidazol-2(3H)-one], the IC50 in experiment [1] lay in the range of 0.01 to 1 nM. Moreover, the GI50 in experiment [2] was 30 to 300 nM.
Regarding `CN1CCN(c2cc(-c3cc(F)cc(-c4ccc(-n5ccn(C)c5=O)c(Cl)c4)c3O)cc3c2cnn3C)CC1` [Example 604, 1-(3-chloro-5′-fluoro-2′-hydroxy-3′-(1-methyl-4-(4-methylpiperazin-1-yl)-1H-indazol-6-yl)-[1,1′-biphenyl]-4-yl)-3-methyl-1H-imidazol-2(3H)-one], the IC50 in experiment [1] lay within 0.01 to 1 nM. In experiment [2], this compound gave a GI50 of 0.3 to 30 nM.
For `C[C@@H]1CN(c2cc(-c3cc(F)cc(-c4ccc(-n5ccn(C)c5=O)c(Cl)c4)c3O)cc3c2nnn3C)CCN1` [Example 605, (R)-1-(3-chloro-5′-fluoro-2′-hydroxy-3′-(1-methyl-4-(3-methylpiperazin-1-yl)-1H-benzo[d][1,2,3]triazol-6-yl)-[1,1′-biphenyl]-4-yl)-3-methyl-1H-imidazol-2(3H)-one], in that order: 0.01 to 1 nM and 0.3 to 30 nM.
Take `Cn1ccn(-c2ccc(-c3cc(F)cc(-c4cc(N5CCN6CCCC6C5)c5cn[nH]c5c4)c3O)cc2Cl)c1=O` (centres unmarked) [Example 606, 1-(3-chloro-5′-fluoro-3′-(4-(hexahydropyrrolo[1,2-a]pyrazin-2(1H)-yl)-1H-indazol-6-yl)-2′-hydroxy-[1,1′-biphenyl]-4-yl)-3-methyl-1H-imidazol-2(3H)-one]: in experiment [1], the IC50 was 0.01 to 1 nM. For the same compound, the GI50 in experiment [2] lay within 0.3 to 30 nM.
